Measurements taken from patent US9910031B2, “Compositions and methods for modulating c-Rel-dependent cytokine production” (Synta Pharmaceuticals Corporation, priority 2003, dated 2018).

Columns and labels:
Type in all cases: cell-based, human
IL-12 p35 mRNA = assay: Northern blot of IL-12 p35 mRNA in IFN-γ/SAC-stimulated THP-1 cells; settings: THP-1, IFN-γ/SAC, 1 μM Compound 1
Procedure: Northern blot analysis was performed to examine the mRNA levels of IL-12 p35 and p40. Human PBMC and the human monocyte cell line THP-1 cells were stimulated with IFN-γ/SAC in the presence or absence of Compound 1. Human PBMC were isolated by centrifugation using Ficoll-Paque (Pharmacia Biotech, Uppsala, Sweden) and prepared in RPMI medium supplemented with 10% fetal calf serum (FCS), 100 U/ml penicillin, and 100 μg/ml streptomycin, in a 96-well plate with 5×10^5 cells/well. The cells were then primed with IFN-γ (100 U/ml) and followed by 0.01% SAC or 1 μg/ml LPS, in the presence of different concentrations of Compound 2 or other compounds. The test compounds were prepared in DMSO and the final DMSO concentration was adjusted to 0.25% in all cultures, including the compound-free control. Cell-free supernatants were taken 18 h later for the measurement of cytokines. The THP-1 cells were obtained from American Type Culture Collection (Manassas, Va.) and were cultured in RPMI 1640 (ATCC, Manassas, Va.), supplemented with 10% FCS (ATCC, Manassas, Va.), and 1% penicillin/Streptomycin (Gibco-BRL, New York, N.Y.). Total RNA was isolated and subjected to Northern blot analysis using IL-12 p35 and p40 cDNA probes. We first examined the kinetics of mRNA accumulation in cultures of hPBMC and THP-1 cells primed with IFN-γ followed by SAC stimulation in the presence or absence of 1 μM Compound 1.

c-Rel = assay: Western blot of nuclear c-Rel in THP-1 cells
Text: (§1) In order to understand this changes, the subcellular localization of NF-κB proteins was investigated using western blot analysis.
(§2) Of the transcription factors that have been analyzed, two factors, ICSBP and c-Rel, seem to be affected by Compound 1/Compound 2 treatment. ICSBP binds indirectly to the Ets-2 site. The primary NFκB trans-activator for IL-12 is the c-Rel/p50 heterodimer. Other dimers (p65/p50 and p50/p50) either lack activity or have inhibitory functions. Thus, c-Rel plays a role in IL-12 transcription as a result of both activation through NFκB and its interaction with ICSBP. […] The membranes were blocked with 5% milk in TBST buffer and then incubated with anti-c-Rel, anti-p65, anti-p50, anti-ICSBP or anti-PU-1 antibody (all the antibodies were purchased from Santa Cruz) at a dilution of 1:500 for 1 h at room temperature or overnight at 4° C. The membranes were washed and incubated with Horseradish Peroxidase-conjugated anti-rabbit IgG or anti-mouse IgG (Amersham, England) at a dilution of 1:2000 at room temperature for 1 h.
THP-1 cells were suspended in 20 volumes of buffer A containing 10 mM KCl, 10 mM HEPES (pH 7.9), 1 mM MgCl2, 1 mM dithiothreitol (DTT), 0.1% Nonidet p40 (NP-40), and 0.5 mM phenylmethylsulfonyl fluoride (PMSF) and homogenized and centrifuged at 10,000 rpm at 4 C for 5 min. […]

p65 = assay: Western blot of nuclear p65 in THP-1 cells
Text: as §1, §2
Compound 2 impairs nuclear translocation of c-Rel and p50. We examined the nuclear translocation kinetics of NF-kB family members in LPS stimulated cells treated with Compound 2. THP1 cells were stimulated with LPS in either the presence or absence of 100 nM Compound 2, and the distribution of the NF-κB Rel family members are determined by immunoblotting nuclear (n.p.) extracts collected at 5 min, 15 min, 30 min, 1 h, 3 h and 6 h post-treatment. In response to LPS stimulation, p50 translocated into the nucleus as early as 5 minutes post-stimulation and accumulates as time goes on (FIG. 7, immunoblots and FIG. 8 densitometry). […] The experiment examining p65 nuclear translocation is shown in FIG. 9 (immunoblots) and FIG. 10 (densitometry). In LPS stimulated cells, p65 translocated into the nucleus as early as 5 minutes post-stimulation and accumulated to maximum levels at 15-30 minutes post-stimulation. Treatment of LPS-stimulated cells with Compound 2 had no effect on the kinetics of p65 nuclear entry.
THP-1 cells were suspended in 20 volumes of buffer A containing 10 mM KCl, 10 mM HEPES (pH 7.9), 1 mM MgCl2, 1 mM dithiothreitol (DTT), 0.1% Nonidet p40 (NP-40), and 0.5 mM phenylmethylsulfonyl fluoride (PMSF) and homogenized and centrifuged at 10,000 rpm at 4 C for 5 min. Nuclear pellets were then suspended in buffer C containing 400 mM NaCl, 20 mM HEPES 9 pH 7.9), 15 mM MgCl2, 0.2 mM EDTA, 1 mM DTT, 25% glycerol, 1 mM PMSF, and 10 ug of leupeptin, 20 ug of pepstatin, and 10 ug/ml antipain, incubated for 30 min at 4 C, and centrifuged at 14,000 rpm for 20 min. The supernatants were dialyzed against buffer D containing 100 mM NaCl, 20 mM HEPES (pH 7.9), 20% glycerol, 1 mM PMSF, and 1 mM DTT. […]

[1] = 500 nM, 3 hr, relative to untreated cells
[2] = THP1, IFN-γ plus LPS or IFN-γ plus SAC

Structure (SMILES)	IL-12 p35 mRNA (IL-12 p35 mRNA)	amount of c-Rel protein in nuclear (c-Rel; [1])	nuclear c-Rel level (FIG. 4) (c-Rel; [2])	amount of p65 in nuclear (p65; [1])	nuclear p65 protein (FIG. 4) (p65; [2])	kinetics of p65 nuclear entry (p65; THP1, LPS, 100 nM)	level of nuclear p65 (p65; THP1, LPS, 100 nM, 6 hours, relative to untreated cells)
C(=NNc1nc(OCCc2ccccn2)nc(N2CCOCC2)n1)c1c[nH]c2ccccc12 [Compound 1, N-(1H-indol-3-ylmethylene)-N′-[4-morpholin-4-yl-6-(2-pyridin-2-yl-ethoxy)-[1,3,5]triazin-2-yl]-hydrazine]	undetectable						
Cc1cccc(C=NNc2cc(N3CCOCC3)nc(OCCc3ccccn3)n2)c1 [Compound 2, N-(3-methyl-benzylidene)-N′-[6-morpholin-4-yl-2-(2-pyridin-2-yl-ethoxy)-pyrimidin-4-yl]-hydrazine]		decreased	significantly reduced	significantly increased	increased	no effect	small increase
